Experiments:
Test in all cases: KINOMEscan competition binding
Settings in all cases: compound 10.0 µM
STK33 (human) = STK33 (human) (UniProt Q9BYT3)
MAPK6 (human) = MAPK6 (human) (UniProt Q16659)
PRKG1 (human) = PRKG1 (human) (UniProt Q13976)
SIK2 (human) = SIK2 (human) (UniProt Q9H0K1)
MARK1 (human) = MARK1 (human) (UniProt Q9P0L2)
MAP2K2 (human) = MAP2K2 (human) (UniProt P36507)
AKT3 (human) = AKT3 (human) (UniProt Q9Y243)
MAP2K6 (human) = MAP2K6 (human) (UniProt P52564)
CAMK2B (human) = CAMK2B (human) (UniProt Q13554)
Sequence of CAMK2B (human) (Q13554 whole entry, looked up): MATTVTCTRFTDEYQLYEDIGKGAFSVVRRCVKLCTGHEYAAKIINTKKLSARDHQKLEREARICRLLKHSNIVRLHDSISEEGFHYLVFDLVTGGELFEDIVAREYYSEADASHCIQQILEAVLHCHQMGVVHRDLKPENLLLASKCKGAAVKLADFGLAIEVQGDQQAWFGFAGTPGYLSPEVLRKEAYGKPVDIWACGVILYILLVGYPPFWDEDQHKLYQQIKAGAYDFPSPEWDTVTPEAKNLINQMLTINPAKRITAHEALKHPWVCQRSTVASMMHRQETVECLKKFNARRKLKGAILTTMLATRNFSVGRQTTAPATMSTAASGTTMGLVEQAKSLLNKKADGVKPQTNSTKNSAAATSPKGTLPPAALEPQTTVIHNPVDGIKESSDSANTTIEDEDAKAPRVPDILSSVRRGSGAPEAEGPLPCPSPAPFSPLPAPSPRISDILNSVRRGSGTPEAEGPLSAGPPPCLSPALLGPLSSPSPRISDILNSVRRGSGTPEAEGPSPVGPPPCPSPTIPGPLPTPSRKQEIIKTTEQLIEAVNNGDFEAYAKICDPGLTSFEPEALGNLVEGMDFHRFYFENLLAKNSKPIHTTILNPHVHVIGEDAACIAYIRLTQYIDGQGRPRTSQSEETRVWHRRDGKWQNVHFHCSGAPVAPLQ

MAPK12 (human) = MAPK12 (human) (UniProt P53778)
[1] = test system: KIT (human), P10721 [V559D/V654A]
SRMS (human) = SRMS (human) (UniProt Q9H3Y6)
MLTK (human) = MLTK (human) (UniProt Q9NYL2)
RAF1 (human) = RAF1 (human) (UniProt P04049)
CSNK1G1 (human) = CSNK1G1 (human) (UniProt Q9HCP0)
ULK2 (human) = ULK2 (human) (UniProt Q8IYT8)
PLK1 (human) = PLK1 (human) (UniProt P53350)
ACVR1 (human) = ACVR1 (human) (UniProt Q04771)
TEC (human) = TEC (human) (UniProt P42680)
[2] = test system: RET (human), P07949 [V804M]
STK32C (human) = STK32C (human) (UniProt Q86UX6)
[3] = test system: EGFR (human), P00533 [P753S; 747-752 del]
[4] = test system: FLT3 (human), P36888 [N841I]
CLK4 (human) = CLK4 (human) (UniProt Q9HAZ1)
BMPR2 (human) = BMPR2 (human) (UniProt Q13873)
[5] = molecular target: TYK2 JH2 pseudokinase (human) (UniProt P29597)
NTRK3 (human) = NTRK3 (human) (UniProt Q16288)
CIT (human) = CIT (human) (UniProt O14578)
MAP4K4 (human) = MAP4K4 (human) (UniProt O95819)
RIPK4 (human) = RIPK4 (human) (UniProt P57078)
NEK2 (human) = NEK2 (human) (UniProt P51955)
CAMK1D (human) = CAMK1D (human) (UniProt Q8IU85)
[6] = test system: RET (human), P07949 [M918T]
STK4 (human) = STK4 (human) (UniProt Q13043)
INSRR (human) = INSRR (human) (UniProt P14616)
Sequence of INSRR (human) (P14616 whole entry, looked up): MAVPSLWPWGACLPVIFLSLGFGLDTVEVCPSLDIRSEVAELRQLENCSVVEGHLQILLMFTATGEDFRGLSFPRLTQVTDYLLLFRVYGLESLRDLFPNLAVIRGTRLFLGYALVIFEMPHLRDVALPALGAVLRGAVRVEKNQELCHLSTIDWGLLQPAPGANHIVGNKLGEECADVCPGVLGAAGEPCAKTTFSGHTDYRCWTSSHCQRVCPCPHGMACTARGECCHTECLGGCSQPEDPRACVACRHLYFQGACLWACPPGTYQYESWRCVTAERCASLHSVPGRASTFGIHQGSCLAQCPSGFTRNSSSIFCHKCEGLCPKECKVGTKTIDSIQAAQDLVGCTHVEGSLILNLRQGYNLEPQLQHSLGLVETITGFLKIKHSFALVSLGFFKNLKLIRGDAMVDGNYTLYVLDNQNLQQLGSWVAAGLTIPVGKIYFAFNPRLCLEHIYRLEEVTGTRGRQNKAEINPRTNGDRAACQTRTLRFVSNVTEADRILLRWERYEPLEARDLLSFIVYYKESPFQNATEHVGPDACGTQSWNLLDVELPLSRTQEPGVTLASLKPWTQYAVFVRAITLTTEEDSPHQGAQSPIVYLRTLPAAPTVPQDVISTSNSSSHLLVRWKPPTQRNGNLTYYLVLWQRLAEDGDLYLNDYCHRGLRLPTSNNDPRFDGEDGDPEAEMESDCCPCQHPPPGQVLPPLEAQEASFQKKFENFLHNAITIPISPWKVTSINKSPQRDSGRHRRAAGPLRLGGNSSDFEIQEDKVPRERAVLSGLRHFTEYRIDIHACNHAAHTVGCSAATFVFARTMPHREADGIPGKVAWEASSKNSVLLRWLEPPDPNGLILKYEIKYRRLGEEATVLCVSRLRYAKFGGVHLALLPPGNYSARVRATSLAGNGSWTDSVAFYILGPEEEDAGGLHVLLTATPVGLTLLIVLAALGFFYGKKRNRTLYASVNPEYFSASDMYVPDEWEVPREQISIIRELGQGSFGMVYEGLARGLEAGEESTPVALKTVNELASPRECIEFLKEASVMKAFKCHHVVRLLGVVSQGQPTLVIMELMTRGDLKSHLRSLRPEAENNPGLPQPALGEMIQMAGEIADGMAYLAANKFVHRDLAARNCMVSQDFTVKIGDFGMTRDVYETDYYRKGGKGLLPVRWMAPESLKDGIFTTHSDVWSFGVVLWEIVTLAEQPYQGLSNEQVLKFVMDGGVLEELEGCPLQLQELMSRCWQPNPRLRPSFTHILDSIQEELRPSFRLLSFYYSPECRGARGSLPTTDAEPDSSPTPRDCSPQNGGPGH

FRK (human) = FRK (human) (UniProt P42685)
RPS6KA2 KD2 (human) = RPS6KA2 KD2 (human) (UniProt Q15349)
CSK (human) = CSK (human) (UniProt P41240)
AAK1 (human) = AAK1 (human) (UniProt Q2M2I8)
DAPK2 (human) = DAPK2 (human) (UniProt Q9UIK4)
[7] = test system: FLT3 (human), P36888 [K663Q]
RPS6KA1 KD2 (human) = RPS6KA1 KD2 (human) (UniProt Q15418)
Sequence of RPS6KA1 KD2 (human) (Q15418 whole entry, looked up): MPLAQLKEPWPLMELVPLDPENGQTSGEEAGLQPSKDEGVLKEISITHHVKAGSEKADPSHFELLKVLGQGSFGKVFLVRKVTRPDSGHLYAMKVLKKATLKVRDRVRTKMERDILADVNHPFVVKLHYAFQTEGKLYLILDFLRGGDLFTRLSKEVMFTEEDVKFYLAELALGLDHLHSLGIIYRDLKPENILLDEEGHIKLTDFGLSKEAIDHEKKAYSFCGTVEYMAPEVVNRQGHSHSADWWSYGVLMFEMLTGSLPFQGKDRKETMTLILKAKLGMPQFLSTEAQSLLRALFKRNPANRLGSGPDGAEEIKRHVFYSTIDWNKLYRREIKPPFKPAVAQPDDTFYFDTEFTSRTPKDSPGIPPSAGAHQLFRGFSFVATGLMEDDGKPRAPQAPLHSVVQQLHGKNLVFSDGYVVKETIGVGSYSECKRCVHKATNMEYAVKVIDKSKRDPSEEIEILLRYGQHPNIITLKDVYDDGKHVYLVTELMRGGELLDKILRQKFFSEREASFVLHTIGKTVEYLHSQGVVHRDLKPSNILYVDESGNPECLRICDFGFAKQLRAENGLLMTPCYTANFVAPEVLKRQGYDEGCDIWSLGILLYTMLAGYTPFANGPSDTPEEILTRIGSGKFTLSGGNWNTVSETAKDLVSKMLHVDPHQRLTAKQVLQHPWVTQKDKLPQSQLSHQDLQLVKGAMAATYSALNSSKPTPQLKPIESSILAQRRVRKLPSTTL

Sequence of MARK1 (human) (Q9P0L2 whole entry, looked up): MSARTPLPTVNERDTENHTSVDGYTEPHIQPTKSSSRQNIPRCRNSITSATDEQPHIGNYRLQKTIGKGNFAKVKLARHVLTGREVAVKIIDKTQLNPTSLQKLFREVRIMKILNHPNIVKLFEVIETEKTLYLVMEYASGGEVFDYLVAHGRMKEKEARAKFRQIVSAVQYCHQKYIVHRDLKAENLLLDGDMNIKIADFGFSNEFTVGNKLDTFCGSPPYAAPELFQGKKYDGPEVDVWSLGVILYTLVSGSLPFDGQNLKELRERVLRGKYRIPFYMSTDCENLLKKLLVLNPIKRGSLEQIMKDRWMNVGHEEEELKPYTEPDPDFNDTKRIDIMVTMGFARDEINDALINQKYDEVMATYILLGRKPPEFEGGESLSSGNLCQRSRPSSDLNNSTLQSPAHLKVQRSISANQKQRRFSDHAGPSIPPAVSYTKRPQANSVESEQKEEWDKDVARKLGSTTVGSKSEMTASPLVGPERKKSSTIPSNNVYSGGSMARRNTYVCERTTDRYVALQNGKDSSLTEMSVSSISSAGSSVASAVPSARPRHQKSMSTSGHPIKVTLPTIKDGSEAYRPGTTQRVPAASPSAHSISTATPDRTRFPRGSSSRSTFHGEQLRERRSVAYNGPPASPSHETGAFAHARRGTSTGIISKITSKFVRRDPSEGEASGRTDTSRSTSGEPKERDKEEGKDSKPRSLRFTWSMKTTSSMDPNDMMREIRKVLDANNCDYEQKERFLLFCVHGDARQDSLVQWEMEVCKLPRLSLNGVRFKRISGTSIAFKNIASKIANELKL
Sequence of SIK2 (human) (Q9H0K1 whole entry, looked up): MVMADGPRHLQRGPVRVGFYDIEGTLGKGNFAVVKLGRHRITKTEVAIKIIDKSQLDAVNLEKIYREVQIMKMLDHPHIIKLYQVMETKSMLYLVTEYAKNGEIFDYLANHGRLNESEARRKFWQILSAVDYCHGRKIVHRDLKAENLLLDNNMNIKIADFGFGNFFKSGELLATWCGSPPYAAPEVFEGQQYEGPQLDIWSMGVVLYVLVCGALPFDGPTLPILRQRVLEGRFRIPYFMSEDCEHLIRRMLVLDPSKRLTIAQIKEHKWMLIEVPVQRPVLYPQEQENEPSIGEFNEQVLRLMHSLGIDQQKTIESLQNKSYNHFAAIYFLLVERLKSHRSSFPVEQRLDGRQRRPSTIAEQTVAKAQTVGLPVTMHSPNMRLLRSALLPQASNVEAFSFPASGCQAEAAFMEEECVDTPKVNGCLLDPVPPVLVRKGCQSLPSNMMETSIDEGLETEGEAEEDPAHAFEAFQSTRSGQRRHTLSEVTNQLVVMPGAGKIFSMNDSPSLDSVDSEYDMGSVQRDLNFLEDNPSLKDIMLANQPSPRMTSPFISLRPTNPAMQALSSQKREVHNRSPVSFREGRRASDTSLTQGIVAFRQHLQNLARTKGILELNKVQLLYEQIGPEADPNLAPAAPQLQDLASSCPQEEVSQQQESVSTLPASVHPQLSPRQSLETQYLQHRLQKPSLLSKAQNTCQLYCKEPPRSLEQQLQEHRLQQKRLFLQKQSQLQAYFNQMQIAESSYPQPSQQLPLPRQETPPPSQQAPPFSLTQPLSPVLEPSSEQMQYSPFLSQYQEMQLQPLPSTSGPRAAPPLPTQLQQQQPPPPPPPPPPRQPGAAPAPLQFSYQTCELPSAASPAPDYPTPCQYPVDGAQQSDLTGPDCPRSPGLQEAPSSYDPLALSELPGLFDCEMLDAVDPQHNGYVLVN
Sequence of PRKG1 (human) (Q13976 whole entry, looked up): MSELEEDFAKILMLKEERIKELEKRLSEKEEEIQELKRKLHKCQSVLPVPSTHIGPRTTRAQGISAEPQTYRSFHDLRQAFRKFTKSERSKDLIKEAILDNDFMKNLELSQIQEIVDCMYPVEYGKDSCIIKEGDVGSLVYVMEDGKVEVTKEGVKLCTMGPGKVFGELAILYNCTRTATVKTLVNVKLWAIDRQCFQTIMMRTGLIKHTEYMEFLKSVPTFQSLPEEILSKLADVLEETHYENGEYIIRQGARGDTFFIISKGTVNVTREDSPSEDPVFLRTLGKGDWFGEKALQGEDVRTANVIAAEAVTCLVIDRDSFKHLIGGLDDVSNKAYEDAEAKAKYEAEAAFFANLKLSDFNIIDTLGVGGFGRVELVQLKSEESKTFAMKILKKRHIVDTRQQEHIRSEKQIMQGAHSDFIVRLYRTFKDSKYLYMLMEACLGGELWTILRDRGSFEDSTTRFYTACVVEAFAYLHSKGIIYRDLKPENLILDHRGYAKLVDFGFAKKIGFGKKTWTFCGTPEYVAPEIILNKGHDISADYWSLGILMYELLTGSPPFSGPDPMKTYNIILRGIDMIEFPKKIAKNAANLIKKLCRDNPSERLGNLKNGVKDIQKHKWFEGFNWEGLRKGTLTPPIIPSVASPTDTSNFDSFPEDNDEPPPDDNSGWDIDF

How did the kinase still bound, per cent of control (STK33 (human)) turn out when `CCN1CCN(Cc2ccc(NC(=O)c3ccc(C)c(/C=C/c4cnc(Nc5cc(N6CCNCC6)nc(C)n5)cn4)c3)cc2C(F)(F)F)CC1` was run?
The kinase still bound, per cent of control was 90%.

And the kinase still bound, per cent of control (MAPK6 (human))?
The kinase still bound, per cent of control was 100%.

And the kinase still bound, per cent of control (PRKG1 (human))?
Its kinase still bound, per cent of control is 100%.

And the kinase still bound, per cent of control (SIK2 (human))?
Its kinase still bound, per cent of control is 61%.

And the kinase still bound, per cent of control (MARK1 (human))?
The kinase still bound, per cent of control was 100%.

And the kinase still bound, per cent of control (MAP2K2 (human))?
Its kinase still bound, per cent of control is 11%.

What about the kinase still bound, per cent of control (AKT3 (human)) of the same compound?
Its kinase still bound, per cent of control is 81%.

And the kinase still bound, per cent of control (MAP2K6 (human))?
Its kinase still bound, per cent of control is 100%.

And the kinase still bound, per cent of control (CAMK2B (human))?
The kinase still bound, per cent of control was 92%.

And the kinase still bound, per cent of control (MAPK12 (human))?
The kinase still bound, per cent of control was 39%.

And the kinase still bound, per cent of control [1]?
Its kinase still bound, per cent of control is 3.7%.

What about the kinase still bound, per cent of control (SRMS (human)) of the same compound?
Its kinase still bound, per cent of control is 8.2%.

And the kinase still bound, per cent of control (MLTK (human))?
Its kinase still bound, per cent of control is 1.2%.

And the kinase still bound, per cent of control (RAF1 (human))?
Its kinase still bound, per cent of control is 43%.

What about the kinase still bound, per cent of control (CSNK1G1 (human)) of the same compound?
The kinase still bound, per cent of control was 100%.

And the kinase still bound, per cent of control (ULK2 (human))?
The kinase still bound, per cent of control was 32%.

And the kinase still bound, per cent of control (PLK1 (human))?
Its kinase still bound, per cent of control is 100%.

And the kinase still bound, per cent of control (ACVR1 (human))?
Its kinase still bound, per cent of control is 100%.

And the kinase still bound, per cent of control (TEC (human))?
Its kinase still bound, per cent of control is 24%.

And the kinase still bound, per cent of control [2]?
Its kinase still bound, per cent of control is 0.15%.

And the kinase still bound, per cent of control (STK32C (human))?
Its kinase still bound, per cent of control is 96%.

What about the kinase still bound, per cent of control [3] of the same compound?
The kinase still bound, per cent of control was 0.2%.

What about the kinase still bound, per cent of control [4] of the same compound?
Its kinase still bound, per cent of control is 0%.

What about the kinase still bound, per cent of control (CLK4 (human)) of the same compound?
Its kinase still bound, per cent of control is 31%.

And the kinase still bound, per cent of control (BMPR2 (human))?
Its kinase still bound, per cent of control is 100%.

And the kinase still bound, per cent of control [5]?
The kinase still bound, per cent of control was 100%.

What about the kinase still bound, per cent of control (NTRK3 (human)) of the same compound?
Its kinase still bound, per cent of control is 1%.

And the kinase still bound, per cent of control (CIT (human))?
Its kinase still bound, per cent of control is 0.2%.

And the kinase still bound, per cent of control (MAP4K4 (human))?
The kinase still bound, per cent of control was 0.1%.

What about the kinase still bound, per cent of control (RIPK4 (human)) of the same compound?
Its kinase still bound, per cent of control is 17%.

And the kinase still bound, per cent of control (NEK2 (human))?
The kinase still bound, per cent of control was 100%.

What about the kinase still bound, per cent of control (CAMK1D (human)) of the same compound?
Its kinase still bound, per cent of control is 100%.

What about the kinase still bound, per cent of control [6] of the same compound?
The kinase still bound, per cent of control was 0.2%.

And the kinase still bound, per cent of control (STK4 (human))?
Its kinase still bound, per cent of control is 22%.

And the kinase still bound, per cent of control (INSRR (human))?
Its kinase still bound, per cent of control is 44%.

What about the kinase still bound, per cent of control (FRK (human)) of the same compound?
Its kinase still bound, per cent of control is 7%.

What about the kinase still bound, per cent of control (RPS6KA2 KD2 (human)) of the same compound?
Its kinase still bound, per cent of control is 43%.

What about the kinase still bound, per cent of control (CSK (human)) of the same compound?
The kinase still bound, per cent of control was 0.55%.

What about the kinase still bound, per cent of control (AAK1 (human)) of the same compound?
Its kinase still bound, per cent of control is 84%.

What about the kinase still bound, per cent of control (DAPK2 (human)) of the same compound?
Its kinase still bound, per cent of control is 66%.

What about the kinase still bound, per cent of control [7] of the same compound?
Its kinase still bound, per cent of control is 0.15%.

And the kinase still bound, per cent of control (RPS6KA1 KD2 (human))?
Its kinase still bound, per cent of control is 13%.

Reference: the kinase profiling compilation of Christmann-Franck et al. (2016)
